Data as given in EP0974573A1, “PHENYLPROPENONE COMPOUNDS AND MEDICINES CONTAINING THE SAME” (Kabushiki Kaisha Yakult Honsha, priority 1997, dated 1998).

What was measured:
SD rats = experiment: Plasma cholesterol elevation inhibitory effects on rats loaded with high cholesterol diet, feed-mixed administration (Test 3); format: in vivo, rat; settings: 0.005% of compound added to hyperlipemia inducing diet, ad libitum 3 days
Text: Using 5-week old male SD rats (120-150 g, 10 rats per group, individual feeding), plasma cholesterol elevation inhibitory effects of various compounds in the Examples on rats were studied. To a control group, a feed which had been prepared by adding 1.5% of cholesterol, 0.5% of cholic acid, 10% of coconut oil and 10% of sugar to "F-2 Diet" (product of FUNABASHI FARM CO., LTD.) was given ad libitum as a hyperlipemia inducing diet.
To each test-compound-administered group, on the other hand, a feed which had been prepared by adding 0.005% of the corresponding compound in the Examples to the hyperlipemia inducing diet of the above-described composition was given ad libitum. Further, a normal diet group to which a feed similar to the hyperlipemia inducing diet except for the exclusion of cholesterol was also tested similarly. As a testing method, after these feeds were given ad libitum for 3 days, bloods were drawn on the 4th day from the abdominal aortas of the individual rats under anesthesia with Nembutal. Subsequent to collection of plasma from each blood sample, the plasma cholesterol was quantitated by a "DETERMINER TC555 KIT" (product of Kyowa Medex Co., Ltd.) while the HDL cholesterol was quantitated by "DETERMINER HDL KIT" (product of Kyowa Medex Co., Ltd.). The liver cholesterol was measured by extracting it in accordance with the Folch's method and then measuring it with a "DETERMINER TC555 KIT". Statistical processing of the data so obtained was conducted by the Danett's test.

rat-derived ACAT = experiment: Inhibitory effects on rat-derived ACAT (Test 1); format: biochemical; settings: crude enzyme from microsome protein fractions of rat liver, (14C)-oleoyl-CoA substrate, 37°C
Experimental: To test effects on ACAT, a reaction was conducted in vitro to form (^14C)-cholesteryl oleate from endogeneous cholesterol in the presence of (^14C)-oleoyl-CoA as a substrate by using a crude enzyme prepared from microzome protein fractions of a rat liver.
The reaction mixture had the following composition: 20 µℓ of microsome protein (1.83 mg/mℓ), 20 µℓ of (^14C)-oleoyl-CoA (5 µCi/mℓ, BSA: 96 nmol/mℓ), 106 µℓ of 100 mM phosphate buffer (containing 5 mM of dithiothreitol, pH 7.4) and a sample dissolved in 4 µℓ of methanol or dimethyl sulfoxide; 150 µℓ in total.
The reaction was conducted at 37°C. After an elapse of a predetermined reaction time (18 minutes in general), a 2:1 mixture of chloroform and methanol (5.65 mℓ) was added to terminate the reaction. A 0.04 N aquous solution of hydrochloric acid (0.98 mℓ) and as a carrier, cholesteryl oleate were added, followed by extraction for 20 minutes on a shaking apparatus. The mixture was then allowed to stand overnight in a cold dark place. On the following day, the separated lower chloroform layer was extracted in its entirety and was dried under a nitrogen gas stream. The remaining upper layer was added with the lower layer (5.65 mℓ) of the Folch's partition solution, and was extracted again. After the mixture was allowed to stand overnight in a dark place, the lower layer was drawn in its entirety. This lower layer was combined with the lower chloroform layer fraction, which had already been dried to solid, and the mixture was then dried to solid.
The solid was then dissolved in chlorofrom (200 µℓ), and the solution was coated in its entirety on a G60 plate (aluminum sheet) for silica gel thin layer chromatography. After the solid was developedover 10 cm with a 10:190 mixture of diethyl ether and petroleum ether, autoradiography was conducted and the formation of (^14C)-colesteryl oleate was confirmed. This section was then cut off. The radioactivity of each sample was measured by subjecting it to liquid scintillation counting for 5 minutes in toluene or was measured for 30 minutes by a "Betascope" (manufactured by BETA-GEN INC. The results so obtained are shown in Table 1. Table 1

[1] = system: J774.1 strain, an established cell line of mouse macrophage; experiment: Inhibitory effects on the accumulation of cholesterol esters in macrophage (Test 2); format: cell-based; settings: J774.1 mouse macrophage, 12 hours incubation with cholesterol liposomes
Experimental: Inhibitory effects on the accumulation of cholesterol esters in macrophage were tested using J774.1 strain, an established cell line of mouse macrophage.
Metabolism of LDL in endothelial cells or smooth muscle cells causes downregulation of the LDL receptor by excess free cholesterol in the cells, but in a macrophage, uptake of modified lDL takes place via a scavenger receptor. As no regulation is applied to this pathway, cholesterol esters progressively accumulate without any limitation.
It was therefore studied whether or not corydaline would inhibit intracellular accumulation of cholesterol esters by having liposomes, which were formed of […] cholesterol and phosphatidylcholine, uptaken in macrophage cells and then causing them to act on acyl-CoA:cholesterol acyltransferase which existed on rough-surfaced endoplasmic reticula.
The macrophage cells were incubated for 2 days under 5% CO2 on an RPMI 1640 medium (product of NISSUI PHARMACEUTICAL CO., LTD.) which had been added with 10% fetal bovine serum, penicilin (50 U/mℓ) and streptomycin (50 µg/mℓ). Trypsinization was then conducted, and cells attached to the bottom of each well were peeled off and formulated into a cell suspension. The cells were washed with a fresh supply of the above-described culture medium, and the cell solution was then seeded at 2 x 10^6 cells/mℓ on a 24-well multiple well plate ("25820-24", product of CORNING INC.). After incubation at 37°C under 5% CO2 for 37 hours, the culture medium was replaced with a fresh supply of the above-described culture medium and, after a 0.3 M glucose solution (40 µℓ) with cholesterol [80 µg; containing 0.4 µCi of (^3H)-cholesterol] and phosphatidylcholine (160 µg) contained therein and a methanol solution (10 µℓ)with a test sample dissolved therein were added, incubation was conducted for 12 hours. These procedures were carried out aseptically.
After completion of the incubation, cells attached to each bottom were washed 5 times with a serum-free RPMI 1640 medium by a graduated pipet, and isopropanol (1 mℓ) was added to extract intracellular cholesterol and formed cholesterol esters. The extract was coated in its entirety on a silica gel thin layer chromatography ("Art 5553", product of MERCK & Co., INC.) and subsequent to development with a 80:20:2 mixture of hexane, ethyl ether and formic acid, autoradiography was performed.
A section, which contained ^3H-labelled cholesterol esters and cholesterol, was cut off. Its radioactivity was measured by a liquid scintillation counter and compared with a control, whereby a cholesterol ester accumulation inhibition rate was determined.

ACAT = experiment: Screening toward substances having ACAT activity inhibitory effects; format: biochemical; settings: screening finding, no value given

SMILES	Inhibitory rate (%) of plasma total cholesterol elevation in rat (SD rats) [%]	IC50 (rat-derived ACAT) [nM]	other results
CCCCCCCCCCCOc1c(OC)cc(/C=C/C(=O)NN2CCN(c3ccc(C)c(C)c3)CC2)cc1OC [Compound 9, N-[4-(3,4-dimethylphenyl)-1,4-diazacyclohexyl]-(2E)-3-(3,5-dimethoxy-4-undecyloxyphenyl)-2-propenamide]	28	45	
CCCCCCCCCCCCOc1c(OC)cc(/C=C/C(=O)NN2CCN(c3ccc(C)c(C)c3)CC2)cc1OC [Compound 10, N-[4-(3,4-dimethylphenyl)-1,4-diazacyclohexyl]-(2E)-3-(3,5-dimethoxy-4-dodecyloxyphenyl)-2-propenamide]	33	71	
COc1cc(/C=C/C(=O)N2CCN(c3ccc(C)cc3C)CC2)cc(OC)c1OCCOc1ccccc1 [Compound 24, N-[4-(2,4-dimethylphenyl)-1,4-diazacyclohexyl]-(2E)-3-[3,5-dimethoxy-4-(2-phenoxy)ethyloxy]-2-propenamide]	20		IC50 [1]: 720 nM
CCCCCCCCCCOc1c(OC)cc(/C=C/C(=O)NCCOc2ccccc2)cc1OC [Compound 52, N-(2-phenoxyethyl)-(2E)-3-(3,5-dimethoxy-4-decyloxyphenyl)-2-propenamide]	23		
CCCCCCCCCCOc1c(OC)cc(/C=C/C(=O)Nc2ccc(Oc3ccccc3)cc2)cc1OC [Compound 55, N-(4-phenoxyphenyl)-(2E)-3-(3,5-dimethoxy-4-decyloxyphenyl)-2-propenamide]	34		
COc1cc(/C=C/C(=O)Nc2ccc(C(F)(F)F)cc2)cc(OC)c1OCc1ccccc1 [Compound 82, N-(4-trifluoromethylphenyl)-(2E)-3-(3,5-dimethoxy-4-benzyloxyphenyl)-2-propenamide]		42	IC50 ([1]; Mus musculus, J774.1, 12 h): 30 nM
COc1cc(/C=C/C(=O)Nc2cc(C(F)(F)F)cc(C(F)(F)F)c2)cc(OC)c1OCc1ccccc1 [Compound 83, N-(3,5-bistrifluoromethylphenyl)-(2E)-3-(3,5-dimethoxy-4-benzyloxyphenyl)-2-propenamide]		60	IC50 ([1]; Mus musculus, J774.1, 12 h): 430 nM
COc1cc(/C=C/C(=O)CCCCc2ccccc2)ccc1O [yakutinone B]			ACAT activity inhibitory effects (ACAT): exhibits ACAT activity inhibitory effects
